Source: patent publication US6586633B1, “Amine derivatives” (Pola Chemical Industries, Inc., priority 2001, dated 2003)

Tests used:
Assay in all cases: Measurement of antifungal activity (minimum inhibitory concentration), agar dilution
Type in all cases: cell-based
M. canis TIMM0760 = details: Microsporum canis, 168 h, Sabouraud's agar, one week at 27° C., read-out: MIC value (minimum compound concentration that definitely inhibited any visible growth)
Experimental: (§1) Measurement of Antifungal Activity (Measurement of Minimum Inhibitory Concentration)
(§2) Antifungal activity of representative compounds of the present invention against dermatophytes was investigated.
(§3) Briefly, strains of dermatophytes to be tested were grown on slant media prepared with Sabouraud's agar (product of Nissuiseiyaku; pepton 1.0%, glucose 4.0%, agar 1.5%, pH 5.9) at 27° C. for two weeks, so as to allow sufficient production of conidiospores. Subsequently, sterilized saline solution containing 0.05% (wt/vol) TWEEN 80 was added thereto, and while the surface of the each medium was scraped with a platinum loop, the conidiospores were deaggregated and suspended in the saline solution. The suspension was filtered through a double face sterilized gauze sheet so as to remove agar and hypha pellets. The filtrate was diluted with a saline solution so as to make the concentration of the conidiospores decrease to 10^6/ml by use of a cytometer, and the resultant dilute filtrate served as a test dermatophytes solution. Meanwhile, a stock solution was prepared by adding 1 ml of dimethylsulfoxide to 10 mg of a compound to be tested. An aliquot (500 μl) of the stock solution was combined with dimethylsulfoxide (500 μl), to thereby prepare a 2-fold dilute solution. Dilution was similarly repeated until 13 different dilute solutions ranging from 10 to 0.0025 mg/ml (concentrations of the ultimate test system: 100-0.025 μg/ml) were obtained. 100 μl each of the diluted solutions of the test compound was dispensed into the sterilized petri dish. A Sabouraud's agar (pepton 1.0%, glucose 4.0%, agar 1.5%, pH 5.9; 10 ml), which had been sterilized and dissolved, was added thereto, and the mixture was thoroughly mixed and solidified. Next, the above-prepared test dermatophytes solution was planted in amounts of 5 μl by use of a microplanter.

M. gypseum IF08231 = details: Nannizzia gypsea, 168 h; M. gypseum IF08231 (Table 2); Sabouraud's agar, one week at 27° C.; read-out: MIC value (minimum compound concentration that definitely inhibited any visible growth)
Experimental: as §1, §2, §3

[1] = tested on: T. mentagrophytes IF05811; details: Trichophyton mentagrophytes, 168 h, Sabouraud's agar, one week at 27° C., read-out: MIC value (minimum compound concentration that definitely inhibited any visible growth)
Experimental: as §1, §2, §3

[2] = tested on: T. mentagrophytes IF07552; details: Trichophyton mentagrophytes, 168 h, Sabouraud's agar, one week at 27° C., read-out: MIC value (minimum compound concentration that definitely inhibited any visible growth)
Experimental: as §1, §2, §3

[3] = tested on: T. mentagrophytes TIMM1177; details: Trichophyton mentagrophytes, 168 h, Sabouraud's agar, one week at 27° C., read-out: MIC value (minimum compound concentration that definitely inhibited any visible growth)
Experimental: as §1, §2, §3

[4] = tested on: T. mentagrophytes TIMM1189; details: Trichophyton mentagrophytes, 168 h, Sabouraud's agar, one week at 27° C., read-out: MIC value (minimum compound concentration that definitely inhibited any visible growth)
Experimental: as §1, §2, §3

T. rubrum IF05808 = details: Trichophyton rubrum, 168 h, Sabouraud's agar, one week at 27° C., read-out: MIC value (minimum compound concentration that definitely inhibited any visible growth)
Experimental: as §1, §2, §3

T. rubrum IF09185 = details: Trichophyton rubrum, 168 h, Sabouraud's agar, one week at 27° C., read-out: MIC value (minimum compound concentration that definitely inhibited any visible growth)
Experimental: as §1, §2, §3

T. violaceum TIMM1264 = details: Trichophyton violaceum, 168 h, Sabouraud's agar, one week at 27° C., read-out: MIC value (minimum compound concentration that definitely inhibited any visible growth)
Experimental: as §1, §2, §3

SMILES | MIC (M. canis TIMM0760) [µg/mL] | MIC (M. gypseum IF08231) [µg/mL] | MIC [1] [µg/mL] | MIC [2] [µg/mL] | MIC [3] [µg/mL] | MIC [4] [µg/mL] | MIC (T. rubrum IF05808) [µg/mL] | MIC (T. rubrum IF09185) [µg/mL] | MIC (T. violaceum TIMM1264) [µg/mL]
C=Cc1cccc(CN(C)Cc2ccc(C(C)(C)C)cc2)c1.Cl [Compound 81, N-(4-tert-Butylbenzyl)-N-methyl-(3-vinylbenzyl)amine Hydrochloride] | 0.2 | 0.39 | 0.39 | 0.39 | 0.39 | 0.78 | 0.2 | 0.39 | 0.78
C=C(C)c1cccc(CN(CC)Cc2ccc(C(C)(C)C)cc2)c1.Cl [Compound 114, N-(4-tert-Butylbenzyl)-N-ethyl-(3-isopropenylbenzyl)amine Hydrochloride] | 0.2 | 0.2 | 0.78 | 0.39 | 0.39 | 0.39 | 0.2 | 0.2 | 0.39

More lines, now with the values ahead:

MIC (M. canis TIMM0760) [µg/mL] | MIC (M. gypseum IF08231) [µg/mL] | MIC [1] [µg/mL] | MIC [2] [µg/mL] | MIC [3] [µg/mL] | MIC [4] [µg/mL] | MIC (T. rubrum IF05808) [µg/mL] | MIC (T. rubrum IF09185) [µg/mL] | MIC (T. violaceum TIMM1264) [µg/mL] | SMILES
1.56 | 1.56 | 1.56 | 1.56 | 3.12 | 1.56 | 0.78 | 0.78 | 3.12 | C=C(C)c1ccccc1CN(C)Cc1ccc(C(C)(C)C)cc1.Cl [Compound 108, N-(4-tert-Butylbenzyl)-N-methyl-(2-isopropenylbenzyl)amine Hydrochloride]
0.1 | 0.2 | 0.1 | 0.1 | 0.2 | 0.1 | 0.05 | 0.1 | 0.1 | C=C(C)c1cc(F)cc(CN(C)Cc2ccc(C(C)(C)C)cc2)c1.Cl [Compound 101, N-(4-tert-Butylbenzyl)-N-methyl-(3-fluoro-5-isopropenylbenzyl)amine Hydrochloride]
0.2 | 3.12 | 1.56 | 0.78 | 0.78 | 0.78 | 0.39 | 0.39 | 0.78 | C=C(CC)c1cccc(CN(C)Cc2ccc(C(C)(C)C)cc2)c1.Cl [Compound 95, N-(4-tert-Butylbenzyl)-N-methyl-[3-(1-ethylvinyl)benzyl]amine Hydrochloride]
